Earlier results in US20050053970A1, “Methods and compositions for identifying peptide aptamers capable of altering a cell phenotype” (priority 2001, published 2005).

Key:
[1] = biological target: α/δ and α/γ sites in T. californica electric organ (Tetronarce californica, UniProt P02710+P02714+P02718)
mammals = conditions: in vivo
[2] = biological target: T1, mutant human growth hormone (Thr175 Gly-hGH) and extracellular domain of the hGH receptor (Trp104 Gly-hGHbp) (Homo sapiens, UniProt P01241+P10912, T201G/W122G); conditions: Thr175 Gly-hGH with Trp104 Gly-hGHbp
T1 construct: the extracellular domain of the hGH receptor (Trp104 Gly-hGHbp)

| Molecule | discrimination between the α/δ and α/γ sites [1] | effect in mammals (mammals) | activity in T. californica [1] | increase of the affinity of the mutant hormone for its receptor [2] |
| --- | --- | --- | --- | --- |
| ECCNPACGRHYSC-NH2 [α-conotoxin GI] | finds the α/δ site preferable to the α/γ site | lethal to mammals at low concentrations | – | – |
| ICCNPACGPLYSC-NH2 [α-conotoxin SI] | does not distinguish | essentially no effect | active | – |
| Clc1cnc(C(Cl)(Cl)Cl)[nH]1 [5-chloro-2-trichloromethylimidazole] | – | – | – | more than 1000 fold |
